Assays:
blood-flow in liver = test: Liver blood-flow by laser Doppler flow method in anesthetized pigs during and after carbon dioxide insufflation (Example I); assay type: in vivo; settings: adult pigs
Experimental: Ten adult pigs were anesthetized at time zero using halothane anesthetic. A small cut was made in the abdomen to allow access inside the peritoneum. In the case of one group of five pigs, denoted group A, an insufflating needle was inserted, and starting at time 1 hour and 48 minutes, an insufflating gas consisting of carbon dioxide was delivered into the abdominal cavity to standard operating pressure (of 15 mm Hg) and the insufflating gas was maintained in the abdominal cavity for 1 hour whereupon the insufflating gas was removed by suction. In the case of another group of five pigs, denoted group B, an insufflating needle was inserted, and starting at time 1 hour and 35 minutes, an insufflating gas consisting of carbon dioxide and 100 ppm ethyl nitrite was delivered to the abdominal cavity to standard operating pressure and the insufflating gas was maintained in the abdominal cavity for about 1⅕ hour whereupon the insufflating gas was removed by suction. In both cases, blood-flow in liver was monitored by a laser Doppler flow method (a standard method where […] are projected at flowing blood and bounce back) whereby blood-flow is determined starting at time 5 minutes after time zero in the case of group A, and starting at about time 20 minutes after time zero in the case of group B and continuing until 2 hours after insufflating gas was removed. In FIGS. 1 and 2, the Doppler Flow Units are arbitrary units. In FIG. 3, the term “Relative Flow” means relative blood-flow in liver compared to baseline. […] FIG. 1 illustrates that carbon dioxide pneumoperitoneum produces a decrease in blood-flow to the liver, which was sustained even after the procedure was completed.

fetal PO2 = test: Fetal PO2 during laparoscopic evaluation of a pregnant female (Example II); assay type: in vivo, human; settings: 32 weeks pregnant female, 100 ppm added to carbon dioxide insufflating gas; fetal PO2 before addition 7 mmHg, electrode on the head
Experimental: A person, 32 weeks pregnant, undergoes laparoscopic evaluation for right lower quadrant pain. Thirty minutes into the procedure, fetal PO2, measured by an electrode placed on the head, is 7 mmHg. 100 ppm ethyl nitrite is added to the carbon dioxide insufflating gas, and the fetal PO2 increases to 25 mm Hg.

[1] = test system: abdominal pain suggestive of intestinal ischemia; test: Laparoscopic cholecystectomy, abdominal pain suggestive of intestinal ischemia (Example III); assay type: in vivo, human; settings: person, 100 ppm added to the insufflating gas one hour into the procedure
Text: A person undergoes laparoscopic cholecystectomy.

renal perfusion = test: Laparoscopy in a person with renal artery stenosis, renal perfusion (Example IV); assay type: in vivo, human; settings: 100 ppm added to insufflating gas
Text: A person with renal artery stenosis undergoes laparoscopy appendectomy and diagnostic evaluation of a renal mass.

[2] = test system: blood pressure, pulmonary and renal functions; test: Laparoscopic appendectomy, agent nebulized into the abdominal cavity (Example V); assay type: in vivo, human; settings: person, 3 cc of 100 micromolar nebulized into the abdominal cavity
Text: A person undergoes laparoscopic appendectomy. Because of concerns of impaired renal function, pulmonary function and hypertension, nitroglycerin (3 cc of 100 micromolar) is nebulized into the abdominal cavity. Blood pressure increases are prevented and pulmonary and renal functions are kept stable.

| SMILES | more blood-flow in liver than with carbon dioxide only, 2 hours post-insufflation (FIG. 3) (blood-flow in liver; 100 ppm ethyl nitrite in carbon dioxide, 2 hours after insufflating gas is removed) | more blood-flow in liver than with carbon dioxide only, during insufflation (FIG. 3) (blood-flow in liver; 100 ppm ethyl nitrite in carbon dioxide, average values while insufflating gas is present) | effect on carbon dioxide induced decline in liver perfusion (FIG. 2) (blood-flow in liver; group B, carbon dioxide with 100 ppm ethyl nitrite, 15 mm Hg, laser Doppler flow) | fetal PO2 after addition of agent (fetal PO2) [mm Hg] | abdominal pain [1] | decrease in blood-flow (renal perfusion) (renal perfusion) | blood pressure increases [2] | pulmonary function [2] | renal function [2] |
| --- | --- | --- | --- | --- | --- | --- | --- | --- | --- |
| CCON=O [ethyl nitrite] | about 40% | about 70% | protects against carbon dioxide induced decline in liver perfusion | 25 | resolution of abdominal pain | protects against decrease in blood-flow |  |  |  |
| O=[N+]([O-])OCC(CO[N+](=O)[O-])O[N+](=O)[O-] [nitroglycerin] |  |  |  |  |  |  | prevented | kept stable | kept stable |

Source: US20100087547A1, “Use of a Blood-Flow Decrease Preventing Agent in Conjunction With Insufflating Gas” (priority 2001, published 2010)
